# Reference: the supplement of paper PMC10307832
# Assays:
# Assay in all cases: relative viability (nuclei count vs DMSO), 5 days (fraction); higher = more cells survive
# Vandetanib + Lapatinib = compound: COc1cc2/c(=N/c3ccc(Br)cc3F)nc[nH]c2cc1OCC1CCN(C)CC1 [Vandetanib] + CS(=O)(=O)CCNCc1ccc(-c2ccc3ncnc(Nc4ccc(OCc5cccc(F)c5)c(Cl)c4)c3c2)o1 [Lapatinib] (partner 2 µM)
# Summary of the method: (§1)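 Lung cancer cell lines were pin-tool dosed in 1536-well plates on the day after seeding, with either a lone drug or a fixed anchor-drug dose plus five library-drug doses (not always all listed) in √10 steps. Nuclei were counted on 4× images after 5 days. Relative viability is the ratio of treated-well to vehicle-well nuclei counts, with each value a median of duplicate plates.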
# CUDC-101 + Phenformin = compound: C#Cc1cccc(Nc2ncnc3cc(OC)c(OCCCCCCC(=O)NO)cc23)c1 [CUDC-101] + N=C(N)NC(=N)NCCc1ccccc1 [Phenformin] (partner 250 µM)
# Summary of the method: as §1
# CUDC-101 + Lapatinib = compound: C#Cc1cccc(Nc2ncnc3cc(OC)c(OCCCCCCC(=O)NO)cc23)c1 [CUDC-101] + CS(=O)(=O)CCNCc1ccc(-c2ccc3ncnc(Nc4ccc(OCc5cccc(F)c5)c(Cl)c4)c3c2)o1 [Lapatinib] (partner 2 µM)
# Summary of the method: as §1
# [1] = compound: C1=CC=C2C(=C1)N=C(S2)C(C#N)C3=NC(=NC=C3)NCCC4=CN=CC=C4 + N=C(N)NC(=N)NCCc1ccccc1 [Phenformin] (partner 250 µM)
# Summary of the method: as §1
cell line,measurement,setting,value
UMC-11,relative viability,Vandetanib + Lapatinib; first compound 0.02 µM,0.816
same,relative viability,Vandetanib + Lapatinib; first compound 0.06325 µM,0.961
same,relative viability,Vandetanib + Lapatinib; first compound 0.2 µM,0.664
same,relative viability,Vandetanib + Lapatinib; first compound 0.6325 µM,0.892
same,relative viability,Vandetanib + Lapatinib; first compound 2 µM,1.01
same,relative viability,CUDC-101 + Phenformin; first compound 0.01 µM,0.337
same,relative viability,CUDC-101 + Phenformin; first compound 0.03162 µM,0.285
same,relative viability,CUDC-101 + Phenformin; first compound 0.1 µM,0.262
same,relative viability,CUDC-101 + Phenformin; first compound 0.3162 µM,0.167
same,relative viability,CUDC-101 + Phenformin; first compound 1 µM,0.102
same,relative viability,CUDC-101 + Lapatinib; first compound 0.01 µM,1.05
same,relative viability,CUDC-101 + Lapatinib; first compound 0.03162 µM,0.968
same,relative viability,CUDC-101 + Lapatinib; first compound 0.1 µM,0.724
same,relative viability,CUDC-101 + Lapatinib; first compound 0.3162 µM,0.711
same,relative viability,CUDC-101 + Lapatinib; first compound 1 µM,0.126
same,relative viability,[1]; first compound 0.005 µM,0.3
same,relative viability,[1]; first compound 0.01581 µM,0.315
same,relative viability,[1]; first compound 0.05 µM,0.32
same,relative viability,[1]; first compound 0.1581 µM,0.325
same,relative viability,[1]; first compound 0.5 µM,0.336
